From BindingDB's records for doi:10.1016/j.bmcl.2005.11.011 (University of Pennsylvania, 2006)

Biological target: T1, Dimer of Gag-Pol polyprotein [489-587] (Human immunodeficiency virus 1, UniProt P12497)
T1 construct: 489-587
Assay: Protease Inhibition Assay
Conditions: pH 5.5; 30 °C

Row | SMILES | IC50 [nM]
1 | O=C(N[C@@H](Cc1ccccc1)[C@@H](O)C[C@]1(Cc2ccccc2)N=CC(C2CNC(=O)c3ccccc32)C1=O)O[C@H]1CCOC1 (stereo partly drawn) [(3S)-oxolan-3-yl N-[(2S,3S)-4-[(2S)-2-benzyl-3-oxo-4-(1-oxo-1,2,3,4-tetrahydroisoquinolin-4-yl)-2,3-dihydro-1H-pyrrol-2-yl]-3-hydroxy-1-phenylbutan-2-yl]carbamate] | 5.7
2 | NC(=O)O[C@@H]1Cc2ccccc2C1C1C=N[C@@](Cc2ccccc2)(C[C@H](O)[C@H](Cc2ccccc2)NC(=O)O[C@H]2CCOC2)C1=O (stereo partly drawn) [(3S)-oxolan-3-yl N-[(2S,3S)-4-[(2S)-2-benzyl-4-[(2R)-2-(carbamoyloxy)-2,3-dihydro-1H-inden-1-yl]-3-oxo-2,3-dihydro-1H-pyrrol-2-yl]-3-hydroxy-1-phenylbutan-2-yl]carbamate] | 2
3 | O=C(N[C@@H](Cc1ccccc1)[C@@H](O)C[C@]1(Cc2ccccc2)N=CC(C2c3ccccc3C[C@H]2O)C1=O)O[C@H]1CCOC1 (stereo partly drawn) [(3S)-oxolan-3-yl N-[(2S,3S)-4-[(2S)-2-benzyl-4-[(2R)-2-hydroxy-2,3-dihydro-1H-inden-1-yl]-3-oxo-2,3-dihydro-1H-pyrrol-2-yl]-3-hydroxy-1-phenylbutan-2-yl]carbamate] | 2
4 | O=C(N[C@@H](Cc1ccccc1)[C@@H](O)C[C@]1(Cc2ccccc2)N=CC(C2c3ccccc3[C@H]3NC(=O)O[C@@H]23)C1=O)O[C@H]1CCOC1 (stereo partly drawn) [(3S)-oxolan-3-yl N-[(2S,3S)-4-[(2S)-4-[(3aR,8aS)-2-oxo-2H,3H,3aH,8H,8aH-indeno[1,2-d][1,3]oxazol-8-yl]-2-benzyl-3-oxo-2,3-dihydro-1H-pyrrol-2-yl]-3-hydroxy-1-phenylbutan-2-yl]carbamate] | 0.44
5 | CC(C)(C)CC(=O)N[C@@H](Cc1ccccc1)[C@@H](O)C[C@]1(Cc2ccccc2)N=CC(C2C[C@H](CC(N)=O)c3ccccc32)C1=O (stereo partly drawn) [N-[(2S,3S)-4-[(2S)-2-benzyl-4-[(3R)-3-(carbamoylmethyl)-2,3-dihydro-1H-inden-1-yl]-3-oxo-2,3-dihydro-1H-pyrrol-2-yl]-3-hydroxy-1-phenylbutan-2-yl]-3,3-dimethylbutanamide] | > 250
6 | CC(C)(C)CC(=O)N[C@@H](Cc1ccccc1)[C@@H](O)C[C@]1(Cc2ccccc2)N=CC(C2c3ccccc3[C@H]3NC(=O)O[C@@H]23)C1=O (stereo partly drawn) [N-[(2S,3S)-4-[(2S)-4-[(3aR,8aS)-2-oxo-2H,3H,3aH,8H,8aH-indeno[1,2-d][1,3]oxazol-8-yl]-2-benzyl-3-oxo-2,3-dihydro-1H-pyrrol-2-yl]-3-hydroxy-1-phenylbutan-2-yl]-3,3-dimethylbutanamide] | 96
7 | CC(C)(C)OC(=O)N[C@@H](Cc1ccccc1)[C@@H](O)C[C@]1(Cc2ccccc2)N=CC(C2C[C@H](CC(N)=O)c3ccccc32)C1=O (stereo partly drawn) [tert-butyl N-[(2S,3S)-4-[(2S)-2-benzyl-4-[(3R)-3-(carbamoylmethyl)-2,3-dihydro-1H-inden-1-yl]-3-oxo-2,3-dihydro-1H-pyrrol-2-yl]-3-hydroxy-1-phenylbutan-2-yl]carbamate] | 20.5
8 | CC(C)(C)OC(=O)N[C@@H](Cc1ccccc1)[C@@H](O)C[C@]1(Cc2ccccc2)N=CC(C2c3ccccc3[C@H]3NC(=O)O[C@@H]23)C1=O (stereo partly drawn) [tert-butyl N-[(2S,3S)-4-[(2S)-4-[(3aR,8aS)-2-oxo-2H,3H,3aH,8H,8aH-indeno[1,2-d][1,3]oxazol-8-yl]-2-benzyl-3-oxo-2,3-dihydro-1H-pyrrol-2-yl]-3-hydroxy-1-phenylbutan-2-yl]carbamate] | 2.5
